Measured values published in patent US8609836B2, “4-aryl-2-anilino-pyrimidines” (Janssen Pharmaceutica NV, priority 2008, dated 2013).

Experiments:
GSK3β (h) = GSK3β (h) (Homo sapiens, UniProt P49841); test: GSK-3β human kinase inhibition, SPA; type: biochemical; conditions: read-out: GSK3b pIC50 (converted)
Procedure: (§1) The in vitro inhibition of a panel of kinases was assessed using either the scintillation proximity assay (SPA) as described by Cook, N. D. et al., Advances in Experimental Medicine and Biology (1991), 36; p. 525-528.
(§2) In the SPA technology the activity of the kinase of interest is measured using an appropriate biotinylated substrate that is incubated with the aforementioned kinase protein in the presence of (^33P) radiolabeled ATP. (^33P) Phosphorylation of the substrate is subsequently measured through binding of the phosphorylated substrate to streptavidine coated beads that are based on the scintillant poly(vinyl toluene) (PVT-Beads). The scintillation intensity is detected by imaging on Leadseeker.
(§3) All kinases are pre-diluted to a 10× working concentration prior to addition into the assay. The composition of the dilution buffer for each kinase is detailed below.
In a final reaction volume of 30 μl, GSK3β (h) (1 μg/ml) is incubated with 25 mM Tris pH 7.4, 10 mM MgCl2, 1 mM DTT, 1 μM peptide Biotin-[…]-OH, 1 μM ATP and 2 nM [γ-^33P-ATP] (6.0 μCi/ml). After incubation of 60 minutes at room temperature, the reaction is stopped by addition of 40 μL of stop solution containing 8.7 mM EDTA, BSA 0.17%, 0.17% Triton X-100, 6.25 mg/ml SPA beads (GE-healthcare). The plate is centrifuged and read for Scintillation imaging on Leadseeker.

A2780 = test: Cellular proliferation assay (Alamar blue), A2780; type: cell-based; conditions: Homo sapiens, 10% FCS, 72 hours with compound, Alamar blue 24 h, read-out: A2780 (cellular proliferation assay, Table 4) (converted)
Procedure: (§4) […] functional properties of these compounds were tested in cellular proliferation assays on a panel of different cell lines in the presence of 10% FCS serum (37° C. and 5% (v/v) CO2). In a first step these cells were seeded and incubated for 24 hours in the absence of compound. In the second step the cells were incubated for 72 hours with the compounds to be tested for 72 hours. The viable cell number was finally assessed in a standard Alamar blue cell viability assay.
(§5) The viable cell number was assessed by incubation for either 4 h (HCT-116, H1299) 6 h (U87-MG) or 24 h (A2780, MDA-MB-231) with Alamar blue (Resazurin 9 μg/ml, K-Ferrocyanide 90 μM, K-Ferricyanide 90 μM) and the converted fluorescent product was quantified on a fluorescent plate reader (544 nm/590 nm). Effect of the compounds is calculated as of on control cells.

HCT-116 = test: Cellular proliferation assay (Alamar blue), HCT-116; type: cell-based; conditions: Homo sapiens, 10% FCS, 72 hours with compound, Alamar blue 4 h
Procedure: as §4, §5

U87-MG = test: Cellular proliferation assay (Alamar blue), U87-MG; type: cell-based; conditions: Homo sapiens, U-87 MG; 10% FCS; 72 hours with compound; Alamar blue 6 h; read-out: U87-MG (cellular proliferation assay, Table 4) (converted)
Procedure: as §4, §5

MDA-MB-231 = test: Cellular proliferation assay (Alamar blue), MDA-MB-231; type: cell-based; conditions: Homo sapiens, 10% FCS, 72 hours with compound, Alamar blue 24 h, read-out: MDA/MB231 (cellular proliferation assay, Table 4) (converted)
Procedure: as §4, §5

PLK2 (h) = PLK2 (h) (Homo sapiens, UniProt Q9NYY3); test: PLK2 human kinase inhibition, SPA; type: biochemical; conditions: read-out: PLK2 pIC50 (converted)
Chain of PLK2 (h) (Q9NYY3 whole entry): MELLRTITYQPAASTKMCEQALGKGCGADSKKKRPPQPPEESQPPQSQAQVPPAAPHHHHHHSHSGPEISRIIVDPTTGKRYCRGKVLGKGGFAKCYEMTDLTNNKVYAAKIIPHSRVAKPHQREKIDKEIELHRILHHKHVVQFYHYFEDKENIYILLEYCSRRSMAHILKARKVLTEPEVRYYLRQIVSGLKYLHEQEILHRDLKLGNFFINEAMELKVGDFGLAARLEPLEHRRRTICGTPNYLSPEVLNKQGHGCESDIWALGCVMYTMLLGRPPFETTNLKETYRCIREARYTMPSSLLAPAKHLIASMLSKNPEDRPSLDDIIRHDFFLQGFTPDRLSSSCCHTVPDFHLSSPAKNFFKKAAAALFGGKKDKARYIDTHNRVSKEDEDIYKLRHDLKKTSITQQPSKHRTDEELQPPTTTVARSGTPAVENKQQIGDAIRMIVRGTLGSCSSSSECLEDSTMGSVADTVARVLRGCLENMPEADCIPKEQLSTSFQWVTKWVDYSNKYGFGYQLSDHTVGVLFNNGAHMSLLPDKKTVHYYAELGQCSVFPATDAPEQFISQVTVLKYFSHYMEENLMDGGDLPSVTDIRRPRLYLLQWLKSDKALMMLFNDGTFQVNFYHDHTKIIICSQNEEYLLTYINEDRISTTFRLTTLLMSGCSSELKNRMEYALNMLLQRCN
Procedure: as §1, §2, §3
In a final reaction volume of 30 μl, PLK2 (h) (30 μg/ml) is incubated with 50 mM Hepes pH 8.0, 2 mM MnCl2, 1 mM DTT, 2 μM of peptide Biotin-Tds linker-[…], 0.1 μM ATP and 2 nM [γ-^33P-ATP] (6.0 μCi/ml). After incubation of 20 minutes at room temperature, the reaction is stopped by addition of 40 μL of stop solution containing 8.7 mM EDTA, BSA 0.17%, 0.17% Triton X-100, 25 mg/ml SPA beads (GE-healthcare). The plate is centrifuged and read for Scintillation imaging on Leadseeker.

H1299 = test: Cellular proliferation assay (Alamar blue), H1299; type: cell-based; conditions: Homo sapiens, NCI-H1299; 10% FCS; 72 hours with compound; Alamar blue 4 h
Procedure: as §4, §5

PLK4 (h) = PLK4 (h) (Homo sapiens, UniProt O00444); test: PLK-4 human kinase inhibition, scintillation proximity assay (SPA); type: biochemical; conditions: read-out: PLK4 pIC50 (converted)
Chain of PLK4 (h) (O00444 whole entry): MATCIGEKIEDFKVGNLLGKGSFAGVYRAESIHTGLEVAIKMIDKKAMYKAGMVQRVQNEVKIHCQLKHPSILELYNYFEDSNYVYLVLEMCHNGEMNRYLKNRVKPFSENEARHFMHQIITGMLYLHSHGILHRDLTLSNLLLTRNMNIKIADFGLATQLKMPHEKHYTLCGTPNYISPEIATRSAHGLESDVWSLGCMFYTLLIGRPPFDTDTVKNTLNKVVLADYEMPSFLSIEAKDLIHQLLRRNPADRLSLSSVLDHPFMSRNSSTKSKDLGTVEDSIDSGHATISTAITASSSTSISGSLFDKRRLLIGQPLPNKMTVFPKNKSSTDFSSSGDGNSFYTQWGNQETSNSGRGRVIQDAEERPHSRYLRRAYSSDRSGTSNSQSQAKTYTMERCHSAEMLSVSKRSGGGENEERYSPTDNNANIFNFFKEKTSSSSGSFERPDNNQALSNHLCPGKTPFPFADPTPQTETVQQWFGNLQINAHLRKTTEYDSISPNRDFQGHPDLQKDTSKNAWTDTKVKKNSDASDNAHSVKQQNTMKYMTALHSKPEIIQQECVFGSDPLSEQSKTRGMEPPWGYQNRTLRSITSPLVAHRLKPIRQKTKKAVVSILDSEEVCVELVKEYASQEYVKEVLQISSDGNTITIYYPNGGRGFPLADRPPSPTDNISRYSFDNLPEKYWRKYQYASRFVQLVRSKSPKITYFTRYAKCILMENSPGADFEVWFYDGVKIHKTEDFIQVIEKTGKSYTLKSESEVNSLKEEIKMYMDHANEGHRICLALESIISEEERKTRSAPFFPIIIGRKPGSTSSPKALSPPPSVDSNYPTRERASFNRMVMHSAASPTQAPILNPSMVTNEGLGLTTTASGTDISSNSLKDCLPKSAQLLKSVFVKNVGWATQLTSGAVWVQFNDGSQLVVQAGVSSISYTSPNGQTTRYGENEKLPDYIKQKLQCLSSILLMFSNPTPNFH
Procedure: as §2, §3
(6.0 μCi/ml). After incubation of 60 minutes at room temperature, the reaction is stopped by addition of 40 μL of stop solution containing 8.7 mM EDTA, BSA 0.17%, 0.17% Triton X-100, 1.7 mg/ml SPA beads (GE-healthcare). The plate is centrifuged and read for Scintillation imaging on Leadseeker.

CDK1/CyclinB (h) = CDK1/CyclinB (h) (Homo sapiens, UniProt P06493); test: CDK1/CyclinB human kinase inhibition, Invitrogen's FRET assay (Z'lyte); type: biochemical; conditions: read-out: CDK1 pIC50 (converted)
Chain of CDK1/CyclinB (h) (P06493 whole entry): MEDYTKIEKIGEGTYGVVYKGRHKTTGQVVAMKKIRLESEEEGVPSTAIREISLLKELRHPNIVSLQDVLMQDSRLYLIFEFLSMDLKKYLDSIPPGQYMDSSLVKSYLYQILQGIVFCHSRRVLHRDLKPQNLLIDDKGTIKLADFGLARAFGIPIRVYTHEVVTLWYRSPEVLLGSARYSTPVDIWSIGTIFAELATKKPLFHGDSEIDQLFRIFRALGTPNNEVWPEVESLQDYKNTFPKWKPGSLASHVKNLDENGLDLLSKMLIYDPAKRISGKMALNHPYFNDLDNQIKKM
Chain of CDK1/CyclinB (h) (P14635 whole entry partner): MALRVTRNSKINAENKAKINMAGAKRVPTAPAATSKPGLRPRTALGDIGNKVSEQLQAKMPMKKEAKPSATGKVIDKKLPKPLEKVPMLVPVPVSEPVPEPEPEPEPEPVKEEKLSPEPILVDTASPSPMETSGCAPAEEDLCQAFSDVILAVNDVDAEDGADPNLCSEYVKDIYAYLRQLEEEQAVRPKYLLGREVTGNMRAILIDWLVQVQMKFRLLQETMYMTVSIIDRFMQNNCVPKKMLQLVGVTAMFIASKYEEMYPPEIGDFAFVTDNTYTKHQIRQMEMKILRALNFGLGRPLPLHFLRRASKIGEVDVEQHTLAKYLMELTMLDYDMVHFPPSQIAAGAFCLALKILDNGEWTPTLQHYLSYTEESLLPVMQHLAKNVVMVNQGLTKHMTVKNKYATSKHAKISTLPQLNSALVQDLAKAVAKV
Procedure: as §1, §3
In a final reaction volume of 10 μl, CDK1/CyclinB (h) (0.2 μg/ml) is incubated with 50 mM Hepes pH 7.5, 10 mM MgCl2, 1 mM EGTA, 0.01% Brij-35, 2 μM Z'lyte Ser/Thr peptide 12 and 10 μM ATP (Invitrogen's FRET assay). After incubation of 60 minutes at room temperature, the reaction is stopped by addition of 5 μL development reagent containing protease mix. After 60 minutes room temperature the development reaction is stopped by adding 5 μl stop solution. The plate is then read in fluorescence plate reader with excitation: 390 nm and dual emission: 460 and 538 nm. Emission ratio is determined to the formula=Emission signal intensity at 460 nm/Emission signal intensity at 538 nm.

PLK3 (h) = PLK3 (h) (Homo sapiens, UniProt Q9H4B4); test: PLK3 human kinase inhibition, SPA; type: biochemical; conditions: read-out: PLK3 pIC50 (converted)
Chain of PLK3 (h) (Q9H4B4 whole entry): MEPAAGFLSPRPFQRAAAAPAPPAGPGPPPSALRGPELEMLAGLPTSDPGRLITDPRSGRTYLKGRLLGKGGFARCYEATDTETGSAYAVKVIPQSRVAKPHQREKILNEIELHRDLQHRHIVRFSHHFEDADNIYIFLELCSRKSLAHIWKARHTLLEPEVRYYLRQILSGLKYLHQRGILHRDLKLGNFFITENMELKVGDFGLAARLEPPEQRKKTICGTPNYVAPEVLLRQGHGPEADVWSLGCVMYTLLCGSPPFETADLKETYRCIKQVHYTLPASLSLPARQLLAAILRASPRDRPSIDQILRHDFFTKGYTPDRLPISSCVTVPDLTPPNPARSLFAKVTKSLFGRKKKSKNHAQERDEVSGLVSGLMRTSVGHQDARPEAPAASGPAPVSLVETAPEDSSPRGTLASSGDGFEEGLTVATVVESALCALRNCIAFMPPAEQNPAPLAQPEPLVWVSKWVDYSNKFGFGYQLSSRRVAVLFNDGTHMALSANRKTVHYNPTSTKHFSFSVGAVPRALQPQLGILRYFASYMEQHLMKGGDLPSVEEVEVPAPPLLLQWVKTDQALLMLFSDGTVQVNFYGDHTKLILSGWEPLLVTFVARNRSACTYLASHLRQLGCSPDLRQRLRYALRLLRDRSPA
Procedure: as §1, §2, §3
In a final reaction volume of 30 μl, PLK3 (h) (30 μg/ml) is incubated with 50 mM Hepes pH 8.0, 2 mM MnCl2, 1 mM DTT, 2 μM of peptide Biotin-Tds linker-[…], 0.1 μM ATP and 2 nM [γ-^33P-ATP] (6.0 μCi/ml). After incubation of 20 minutes at room temperature, the reaction is stopped by addition of 40 μL of stop solution containing 8.7 mM EDTA, BSA 0.17%, 0.17% Triton X-100, 25 mg/ml SPA beads (GE-healthcare). The plate is centrifuged and read for Scintillation imaging on Leadseeker.

AuroraB (h) = AuroraB (h) (Homo sapiens, UniProt Q96GD4); test: Aurora-B human kinase inhibition, SPA; type: biochemical; conditions: read-out: AuroraB pIC50 (converted)
Chain of AuroraB (h) (Q96GD4 whole entry): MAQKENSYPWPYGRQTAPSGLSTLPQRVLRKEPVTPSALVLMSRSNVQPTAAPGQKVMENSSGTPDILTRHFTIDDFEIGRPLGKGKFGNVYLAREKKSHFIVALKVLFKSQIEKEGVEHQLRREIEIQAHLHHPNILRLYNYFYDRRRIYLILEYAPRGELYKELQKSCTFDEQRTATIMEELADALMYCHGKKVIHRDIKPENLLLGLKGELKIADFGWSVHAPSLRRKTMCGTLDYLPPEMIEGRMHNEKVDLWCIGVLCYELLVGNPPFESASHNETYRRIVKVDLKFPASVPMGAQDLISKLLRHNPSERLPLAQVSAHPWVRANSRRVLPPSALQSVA
Procedure: as §1, §2, §3
In a final reaction volume of 30 μl, AuroraB (h) (0.5 μg/ml) is incubated with 60 mM Hepes pH 7.5, 3 mM MgCl2, 3 mM MnCl2, 3 μM Na3VO4, 0.05 mg/ml PEG, 2 mM DTT, 3 μM Biotin-[…]-OH, 0.5 μM ATP and 2.2 nM [γ-^33P-ATP] (6.8 μCi/ml). After incubation of 60 minutes at room temperature, the reaction is stopped by addition of 40 μL of stop solution containing 8.7 mM EDTA, BSA 0.17%, 0.17% Triton X-100, 5 mg/ml SPA beads (GE-healthcare). The plate is centrifuged and read for Scintillation imaging on Leadseeker.

PLK1 T210D (h) = PLK1 T210D (h) (Homo sapiens, UniProt P53350, T210D); test: PLK1 human kinase inhibition, SPA; type: biochemical; conditions: read-out: PLK1 pIC50 (converted)
Chain of PLK1 T210D (h) (P53350 whole entry T210D): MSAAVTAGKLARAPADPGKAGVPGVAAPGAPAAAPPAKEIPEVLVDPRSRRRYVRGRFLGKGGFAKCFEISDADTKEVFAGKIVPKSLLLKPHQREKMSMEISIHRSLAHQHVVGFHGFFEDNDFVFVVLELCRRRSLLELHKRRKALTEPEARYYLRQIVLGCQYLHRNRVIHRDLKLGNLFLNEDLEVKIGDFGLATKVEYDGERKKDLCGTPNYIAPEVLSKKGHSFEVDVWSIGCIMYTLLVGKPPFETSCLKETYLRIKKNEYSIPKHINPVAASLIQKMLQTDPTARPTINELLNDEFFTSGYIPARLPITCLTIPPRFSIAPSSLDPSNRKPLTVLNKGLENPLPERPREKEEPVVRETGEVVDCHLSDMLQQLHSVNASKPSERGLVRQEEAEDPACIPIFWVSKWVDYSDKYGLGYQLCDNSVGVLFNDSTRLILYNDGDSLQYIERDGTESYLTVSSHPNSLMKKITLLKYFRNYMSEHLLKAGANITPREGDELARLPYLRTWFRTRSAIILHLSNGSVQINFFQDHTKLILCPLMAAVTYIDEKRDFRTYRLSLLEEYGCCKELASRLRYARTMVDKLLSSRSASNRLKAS
Procedure: as §1, §2, §3
In a final reaction volume of 30 μl, PLK1 T210D (h) (0.125 ng/ml) is incubated with 50 mM Hepes pH 8.0, 2 mM MnCl2, 1 mM DTT, 2 μM of peptide Biotin-Tds linker-[…], 0.1 μM ATP and 2 nM [γ-^33P-ATP] (6.0 μCi/ml). After incubation of 40 minutes at room temperature, the reaction is stopped by addition of 40 μL of stop solution containing 8.7 mM EDTA, BSA 0.17%, 0.17% Triton X-100, 25 mg/ml SPA beads (GE-healthcare). The plate is centrifuged and read for Scintillation imaging on Leadseeker.

Chain of GSK3β (h) (P49841 whole entry): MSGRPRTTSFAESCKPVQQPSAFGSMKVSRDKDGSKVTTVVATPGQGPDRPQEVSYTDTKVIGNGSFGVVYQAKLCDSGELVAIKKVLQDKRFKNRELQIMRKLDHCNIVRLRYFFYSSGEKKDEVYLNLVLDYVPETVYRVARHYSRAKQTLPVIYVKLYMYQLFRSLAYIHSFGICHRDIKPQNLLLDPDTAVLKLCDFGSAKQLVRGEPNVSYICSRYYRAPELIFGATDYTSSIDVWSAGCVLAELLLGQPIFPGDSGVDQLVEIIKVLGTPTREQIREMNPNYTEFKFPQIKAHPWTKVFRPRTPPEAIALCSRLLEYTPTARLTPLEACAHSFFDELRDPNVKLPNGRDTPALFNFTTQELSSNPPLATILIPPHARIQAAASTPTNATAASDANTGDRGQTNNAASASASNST

| SMILES | IC50 (GSK3β (h)) | IC50 (A2780) | IC50 (HCT-116) | IC50 (U87-MG) | IC50 (MDA-MB-231) | IC50 (PLK2 (h)) | IC50 (H1299) | IC50 (PLK4 (h)) | IC50 (CDK1/CyclinB (h)) | IC50 (PLK3 (h)) | IC50 (AuroraB (h)) | IC50 (PLK1 T210D (h)) |
| --- | --- | --- | --- | --- | --- | --- | --- | --- | --- | --- | --- | --- |
| CN1CCCNC(=O)CN2CCN(CC2)Cc2cc(cc(N3CCOCC3)c2)Nc2nccc(n2)-c2ccc(cc2)C1 [Compound 136] | 6.76 µM | 2.34 µM | 0.355 µM | 1.7 µM | > 10 µM | > 10 µM | 3.02 µM | 1.82 µM | > 10 µM | > 10 µM | > 10 µM | > 10 µM |
| COc1cc2cc(c1OC)CNC(=O)[C@H](CO)NCc1cccc(c1)-c1ccnc(n1)N2 [Compound 8] | 0.309 µM | > 10 µM | 7.94 µM | > 10 µM | > 10 µM | 3.63 µM | > 10 µM | 0.363 µM | > 10 µM | 4.68 µM | 4.68 µM | > 10 µM |
| COc1ccc2cc1CN(C)CCNC(=O)[C@H](C)NCc1cc(ccc1N1CCOCC1)Nc1nccc-2n1 [Compound 116] | > 10 µM | > 10 µM | 4.07 µM | 5.75 µM | > 10 µM | > 10 µM | > 10 µM | 1.48 µM | > 10 µM | > 10 µM | > 10 µM | > 10 µM |
| O=C1CN2CCN(CC2)Cc2cc(ccc2N2CCOCC2)Nc2nccc(n2)-c2ccc(cc2)CNCCCN1 [Compound 139] | > 10 µM | 7.41 µM | 7.41 µM | 2.09 µM | > 10 µM | > 10 µM | > 10 µM | 2.19 µM | > 10 µM | > 10 µM | > 10 µM | > 10 µM |
| COc1ccc2cc1CN(C)CCCNC(=O)[C@H](CO)NCc1cc(Br)cc(c1)Nc1nccc-2n1 [Compound 112] | 3.89 µM | > 10 µM | > 10 µM | > 10 µM | > 10 µM | > 10 µM | > 10 µM | 0.912 µM | > 10 µM | > 10 µM | 3.31 µM | > 10 µM |
| COc1ccc2cc1CN1CCC(CC1)C(=O)N(C)CCCN(C)c1ccc(cn1)-c1ccnc(n1)N2 [Compound 85] | 2.95 µM | > 10 µM | 4.79 µM | > 10 µM | > 10 µM | > 10 µM | 5.89 µM | 5.89 µM | > 10 µM | > 10 µM | > 10 µM | > 10 µM |
| CC1(C)NCc2cc(ccc2N2CCOCC2)Nc2nccc(n2)-c2cccc(c2)OCCCNC1=O [Compound 90] | 0.417 µM | 6.03 µM | 1.7 µM | 4.57 µM | 5.37 µM | > 10 µM | 8.71 µM | 0.646 µM | 4.68 µM | > 10 µM | > 10 µM | > 10 µM |
| COc1cc2cc(c1OC)CNC(=O)[C@@H]1CCCN1Cc1cccc(c1)-c1ccnc(n1)N2 [Compound 150] | 0.1 µM | > 10 µM | 4.27 µM | > 10 µM | > 10 µM | > 10 µM | > 10 µM | 0.832 µM | 5.89 µM | > 10 µM | > 10 µM | > 10 µM |
